Ends that are not written are not given here.
How the values were obtained:
TRHR with OxR1 = experiment: eBRET between TRHR/Rluc and barr2/Venus with OxR1 as IG3; assay type: cell-based
Description: (§1) Where antagonist was not preincubated, cells were treated with PBS instead for the same amount of time.
(§2) Cells were seeded in 6-well plates at a density of approximately 630,000 cells/well (HEK293FT) or approximately 150,000 cells/well (COS-7) and maintained at 37° C., 5% CO2 in Complete Media (DMEM containing 0.3 mg/ml glutamine, 100 IU/ml penicillin and 100 μg/ml streptomycin (Gibco)) supplemented with 10% fetal calf serum (FCS; Gibco). Transient transfections were carried out 24 h after seeding using GeneJuice (Novagen) or Metafectene (Biontex) according to manufacturer instructions. 24 h post-transfection, cells were washed with PBS, detached using 0.05% trypsin/0.53 mM EDTA, resuspended in HEPES-buffered phenol red free Complete Media containing 5% FCS and added to a poly-L-lysine-coated white microplate (Nunc). 48 h post-transfection, eBRET assays were carried out following pre-incubation of cells with EnduRen™ (Promega) at a final concentration of 30-40 μM, at 37° C., 5% CO2 for 2 h. For original BRET studies, the HEPES-buffered phenol red free Complete Media was replaced with PBS and coelenterazine h (Molecular Probes) added to a final concentration of 5 μM immediately prior to commencing the assay. […] Filtered light emissions were sequentially measured for 3-5 s in each of the ‘donor wavelength window’ (400-475 nm) and ‘acceptor wavelength window’ (>500 nm for EGFP or 520-540 nm for EYFP, Topaz (TYFP) or Venus). The BRET signal observed between interacting proteins is normalized by subtracting the background BRET ratio. […] In the following examples, the first calculation will be used, unless the signal is described as the ligand-induced BRET ratio'.
Cells not pretreated with antagonist were pretreated with PBS instead for the same amount of time.

[1] = test system: TRHR with OxR2 (thyrotropin releasing hormone receptor/orexin receptor hetero-dimer/-oligomer); experiment: eBRET/BRET between TRHR/Rluc (or Rluc8) and labelled beta-arrestin with OxR2 co-expressed as IG3; assay type: cell-based
Description: (§3) eBRET measurements at 37 C were carried out on HEK293 cells transiently co-expressing TRHR/Rluc and barr2/Venus with either pcDNA3, orexin receptor 2 (OxR2), CXC chemokine receptor 2 (CXCR2), hemagglutin epitope-tagged melanocortin receptor 3 or 4 (HA-MC3R or HA-MC4R), or dopamine D2 receptor long form (D2LR) or short form (D2SR) following the treatment of each with their respective ligands.
(§4) Phosphate-buffered saline (PBS) was used as a vehicle control.
as §1, §4
Sigmoidal dose response curves were plotted using Prism (GraphPad), either assuming a Hill slope of 1 or allowing for variable slope.
Phosphate-buffered saline (PBS) was added to the first two rows and the last two rows of the 96-well plate (48 wells in total) as a vehicle control. […] Data presented as fluorescence/luminescence.
as §2
In this case, data are shown as ‘fluorescence/luminescence’ being the ratio of light emission through the ‘acceptor wavelength window’ over the 400-475 nm emission for a particular cell sample. Unless otherwise stated, BRET signals were measured in 96-well microplates.

[2] = cited from earlier work
CCR5 with CCR2 = molecular target: T1, CCR5 with CCR2 (Homo sapiens, UniProt P41597+P51681); experiment: eBRET between CCR5(5)TYFP and barr2/Rluc with CCR2 as IG3; assay type: cell-based; conditions: CCR5(5)TYFP + barr2/Rluc + CCR2
T1 construct: expressed in transfected cells; host or cells: HEK293
T1 sequence (P51681 whole entry, species assumed): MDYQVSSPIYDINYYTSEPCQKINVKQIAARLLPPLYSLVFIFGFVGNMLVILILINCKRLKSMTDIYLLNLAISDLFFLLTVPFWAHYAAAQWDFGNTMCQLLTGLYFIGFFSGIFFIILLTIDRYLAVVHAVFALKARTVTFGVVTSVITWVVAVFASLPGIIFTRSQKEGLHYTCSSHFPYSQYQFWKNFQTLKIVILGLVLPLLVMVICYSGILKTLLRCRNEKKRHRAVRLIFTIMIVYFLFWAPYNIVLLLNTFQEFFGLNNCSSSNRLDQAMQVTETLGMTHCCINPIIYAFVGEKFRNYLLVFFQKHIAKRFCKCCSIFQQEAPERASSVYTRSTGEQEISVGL
T1 sequence (P41597 whole entry, species assumed): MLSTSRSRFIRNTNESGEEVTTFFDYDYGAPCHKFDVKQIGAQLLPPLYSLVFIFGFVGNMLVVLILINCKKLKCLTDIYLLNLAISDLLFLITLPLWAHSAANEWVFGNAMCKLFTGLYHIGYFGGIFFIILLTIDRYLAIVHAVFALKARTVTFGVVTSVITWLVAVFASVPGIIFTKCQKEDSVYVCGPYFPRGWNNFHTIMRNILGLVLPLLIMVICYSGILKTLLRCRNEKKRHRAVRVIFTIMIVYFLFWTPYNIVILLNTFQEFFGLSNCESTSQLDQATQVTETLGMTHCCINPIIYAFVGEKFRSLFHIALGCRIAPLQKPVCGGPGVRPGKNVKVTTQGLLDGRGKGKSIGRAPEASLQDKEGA
Description: (§5) Ligand treatments were either monocyte chemoattractant protein 1 (MCP1; CCR2 selective ligand), macrophage inflammatory protein 1b (MIP1b; CCR5 selective ligand), or both MCP1 and MIP1b combined. Phosphate-buffered saline (PBS) was used as a vehicle control.
BRET measurements at 37 C were carried out on HEK293 cells transiently co-expressing CCR5(5)TYFP (contains a 5 amino acid linker between CCR5 and TYFP), barr2/Rluc and CCR2 treated with increasing doses of monocyte chemoattractant protein 1 (MCP1; CCR2 selective ligand). A sigmoidal dose response curve was plotted using Prism (GraphPad) allowing for variable slope.
Cells were seeded in 6-well plates at a density of approximately 630,000 cells/well (HEK293FT) or approximately 150,000 cells/well (COS-7) and maintained at 37° C., 5% CO2 in Complete Media (DMEM containing 0.3 mg/ml glutamine, 100 IU/ml penicillin and 100 μg/ml streptomycin (Gibco)) supplemented with 10% fetal calf serum (FCS; Gibco). […] BRET measurements were taken at 37° C. using the Victor Light plate reader with Wallac 1420 software (Perkin-Elmer). Filtered light emissions were sequentially measured for 3-5 s in each of the ‘donor wavelength window’ (400-475 nm) and ‘acceptor wavelength window’ (>500 nm for EGFP or 520-540 nm for EYFP, Topaz (TYFP) or Venus). […]

[3] = molecular target: T2, CC chemokine receptor 5 (CCR5) (Homo sapiens, UniProt P51681); experiment: eBRET between CCR5(5)TYFP and barr2/Rluc without IG3 (pcDNA3); assay type: cell-based; conditions: CCR5(5)TYFP + barr2/Rluc + pcDNA3
T2 construct: expressed in transfected cells; host or cells: HEK293
T2 sequence (P51681 whole entry, species assumed): as the sequence (P51681 whole entry, species assumed) above
Description: as §5
(§6) Cells were seeded in 6-well plates at a density of approximately 630,000 cells/well (HEK293FT) or approximately 150,000 cells/well (COS-7) and maintained at 37° C., 5% CO2 in Complete Media (DMEM containing 0.3 mg/ml glutamine, 100 IU/ml penicillin and 100 μg/ml streptomycin (Gibco)) supplemented with 10% fetal calf serum (FCS; Gibco). Transient transfections were carried out 24 h after seeding using GeneJuice (Novagen) or Metafectene (Biontex) according to manufacturer instructions. 24 h post-transfection, cells were washed with PBS, detached using 0.05% trypsin/0.53 mM EDTA, resuspended in HEPES-buffered phenol red free Complete Media containing 5% FCS and added to a poly-L-lysine-coated white microplate (Nunc). 48 h post-transfection, eBRET assays were carried out following pre-incubation of cells with EnduRen™ (Promega) at a final concentration of 30-40 μM, at 37° C., 5% CO2 for 2 h. For original BRET studies, the HEPES-buffered phenol red free Complete Media was replaced with PBS and coelenterazine h (Molecular Probes) added to a final concentration of 5 μM immediately prior to commencing the assay. BRET measurements were taken at 37° C. using the Victor Light plate reader with Wallac 1420 software (Perkin-Elmer). Filtered light emissions were sequentially measured for 3-5 s in each of the ‘donor wavelength window’ (400-475 nm) and ‘acceptor wavelength window’ (>500 nm for EGFP or 520-540 nm for EYFP, Topaz (TYFP) or Venus). The BRET signal observed between interacting proteins is normalized by subtracting the background BRET ratio. […]

[4] = test system: TRHR335 (truncated TRHR) with OxR2; experiment: eBRET/BRET between TRHR335/Rluc and labelled beta-arrestin with OxR2 as IG3; assay type: cell-based; conditions: TRHR335/Rluc + EGFP/barr1 + OxR2
TRHR335 with TRHR = experiment: eBRET between TRHR335/Rluc and EGFP/barr1 with TRHR as IG3; assay type: cell-based
Description: Ligand treatments were either OxA or TRH only.
as §6, with “For original BRET studies, the HEPES-buffered phenol red free Complete Media was replaced with PBS and coelenterazine h (Molecular Probes) added to a final concentration of 5 μM immediately prior to commencing the assay.” left out, “Venus).” for “Venus). The BRET signal observed between interacting proteins is normalized by subtracting the background BRET ratio.”

[5] = test system: thyrotropin releasing hormone receptor (TRHR); experiment: eBRET/BRET beta-arrestin recruitment to TRHR/Rluc without IG3 (pcDNA3) in HEK293 cells; assay type: cell-based
Description: as §3
Ligand treatments were either OxA or TRH only or both OxA and TRH combined. Phosphate-buffered saline (PBS) was used as a vehicle control.
Ligand treatments were either OxA or TRH only. Phosphate-buffered saline (PBS) was used as a vehicle control.
BRET measurements at 37 C were carried out on HEK293 cells transiently co-expressing TRHR/Rluc, barr2/Venus and pcDNA3 with increasing doses of TRH. Sigmoidal dose response curves were plotted using Prism (Graph Pad), either assuming a Hill slope of 1 or allowing for variable slope. The EC50 and Hill slope values for the variable slope curve are included in a table in the graph.
TRHR is IG1, Rluc is RC1, barr1 is IG2, EGFP is RC2 and OxR2 is IG3. The same amount of EGFP/barr1 (IG2-RC2) is transfected for each experiment.
Cells were seeded in 6-well plates at a density of approximately 630,000 cells/well (HEK293FT) or approximately 150,000 cells/well (COS-7) and maintained at 37° C., 5% CO2 in Complete Media (DMEM containing 0.3 mg/ml glutamine, 100 IU/ml penicillin and 100 μg/ml streptomycin (Gibco)) supplemented with 10% fetal calf serum (FCS; Gibco). Transient transfections were carried out 24 h after seeding using GeneJuice (Novagen) or Metafectene (Biontex) according to manufacturer instructions. 24 h post-transfection, cells were washed with PBS, detached using 0.05% trypsin/0.53 mM EDTA, resuspended in HEPES-buffered phenol red free Complete Media containing 5% FCS and added to a poly-L-lysine-coated white microplate (Nunc). 48 h post-transfection, eBRET assays were carried out following pre-incubation of cells with EnduRen™ (Promega) at a final concentration of 30-40 μM, at 37° C., 5% CO2 for 2 h. For original BRET studies, the HEPES-buffered phenol red free Complete Media was replaced with PBS and coelenterazine h (Molecular Probes) added to a final concentration of 5 μM immediately prior to commencing the assay. BRET measurements were taken at 37° C. using the Victor Light plate reader with Wallac 1420 software (Perkin-Elmer). Filtered light emissions were sequentially measured for 3-5 s in each of the ‘donor wavelength window’ (400-475 nm) and ‘acceptor wavelength window’ (>500 nm for EGFP or 520-540 nm for EYFP, Topaz (TYFP) or Venus). The BRET signal observed between interacting proteins is normalized by subtracting the background BRET ratio. This can be done in one of two ways (see Pfleger et al. (2006) Cell Signal 18, 1664-1670; Pfleger et al. (2006) Nat Protoc 1, 336-344): 1) the ratio of light emission through the ‘acceptor wavelength window’ over the 400-475 nm emission for a cell sample containing only the donor construct is subtracted from the same ratio for a sample containing the interacting acceptor and donor fusion proteins; 2) the ratio of light emission through the ‘acceptor wavelength window’ over the 400-475 nm emission for a cell sample treated with vehicle is subtracted from the same ratio for a second aliquot of the same cell sample treated with ligand. In the following examples, the first calculation will be used, unless the signal is described as the ligand-induced BRET ratio'.

[6] = 10^−6M antagonist approx. 40 minutes before 10^−6M OxA
[7] = 10^−6M antagonist approx. 40 minutes before 10^−6M TRH and OxA

## Cc1nc2ccc(NC(=O)Nc3ccnc4cccnc34)cc2o1.Cl [SB-334867-A, 1-(2-methylbenzoxazol-6-yl)-3-[1,5]naphthyridin-4-yl urea hydrochloride]
TRHR with OxR1; [6]
  effect of antagonist pretreatment on OxA-induced eBRET signal: reduced
TRHR with OxR1; [7]
  effect of antagonist pretreatment on TRH + OxA-induced eBRET signal: reduced
[1]; [6]
  effect of antagonist pretreatment on OxA-induced eBRET signal: not affected
[1]; [7]
  effect of antagonist pretreatment on TRH + OxA-induced eBRET signal: did not differ

## CN1C(=O)C[C@@H](C(=O)N[C@@H](Cc2c[nH]cn2)C(=O)N2CCC[C@H]2C(N)=O)NC1=O.O.O.O.O [TA-0910, (−)-N—[(S)-hexahydro-1-methyl-2,6-dioxo-4-pyrimidinylcarbonyl]-L-histidyl-L-prolinamide tetrahydrate]
[2]; dose- and time-dependent manner
  slow wave sleep (SWS) and rapid eye movement (REM) sleep: significantly reduced
[2]; in most of the animals studied
  cataplexy: completely suppressed

## MCP1: Monocyte chemoattractant protein 1 (CCR2 selective ligand)
CCR5 with CCR2
  eBRET signal: able to produce a signal
[3]
  eBRET signal: no eBRET signal
  effect of MCP1 addition on MIP1b-induced eBRET signal: made no difference

## OxA: Orexin A, orexin receptor modulator used as IG3 ligand (QPLPDCCRQKTCSCRLYELLHGAGNHAAGILTL; not fully specified; ends and bridges not checked; UniProt O43612 34-66, looked up)
[4]
  time to eBRET signal plateau: about 20 minutes
TRHR with OxR1; TRHR/Rluc + barr2/Venus + OxR1, agonist 10^−6M
  eBRET signal: small eBRET signal
[1]; Example 3: TRHR/Rluc + barr2/Venus + OxR2, 10^−6M OxA, PBS pretreatment
  eBRET signal: eBRET signal was observed
[1]; HEK293, TRHR/Rluc + barr2/Venus + OxR2, ligand 10^−6M
  time to reach eBRET signal: up to 30 minutes
[1]; HEK293, TRHR/Rluc + barr2/Venus + OxR2, ligand 10^−6M, 37 C
  eBRET signal: 0.07-0.08
[1]; TRHR/Rluc + EGFP/barr1R169E + OxR2 (lower signal than EGFP/barr1)
  time to eBRET signal plateau: ≤ 20 min
[1]; TRHR/Rluc + EGFP/barr1 or EGFP/barr2 + HA-OxR2
  time to eBRET signal plateau: more than 10 minutes
[1]; TRHR/Rluc + EGFP/barr1 or EGFP/barr2 + OxR2
  time to eBRET signal plateau: more than 10 minutes
[1]; TRHR/Rluc + barr2/Venus + OxR2, coelenterazine h and EnduRen, FIG. 12
  dose-response Hill slopes: greater than 1
TRHR335 with TRHR
  eBRET signal: no eBRET signal above baseline
[5]; TRHR/Rluc + EGFP/barr1, 0 μg OxR2 DNA/well, 10^−6M OxA, 83 mins
  cumulative eBRET signal: no signal was recorded
[5]; TRHR/Rluc + EGFP/barr1 or EGFP/barr2, no OxR2, OxA present with TRH
  effect of OxA on TRH-induced eBRET signal: no difference
[5]; TRHR/Rluc + EGFP/barr (barr1, barr2 or barr1R169E), no OxR2
  eBRET signal: No increase in eBRET signal above baseline

B1: MIP1b: Macrophage inflammatory protein 1b (CCR5 selective ligand) (protein, UniProt P13236 24-92, looked up)
C-C motif chemokine 4: APMGSDPPTACCFSYTARKLPRNFVVDYYETSSLCSQPAVVFQTKRSKQVCADPSESWVQEYVYDLELN
CCR5 with CCR2
  eBRET signal: produced a signal
[3]
  eBRET signal: robust signal
